Measured values: patent US20050192262A1, “Treatment of tumours” (priority 2001, published 2005)

Assays:
PC-3 = experiment: Caspase-3 apoptosis assay (Ac-DEVD-AMC fluorescence); format: cell-based, human; settings: 96 hours; for Mean fluorescence PC-3 samples/100 cells n = 3: corrected for cell number; for Caspase 3-mediated fluorescence compared to untreated controls: PC-3, 100 nM, not corrected for cell numbers
Description: (§1) Exposure was maintained for 96 hours and cells in culture flasks were then treated with 5 ml of trypsin (0.25%) for PC-3 and trypsin and 3 ml of Versene (0.2 mM) for DU-145. Cells were then mechanically loosened, using a glass spatula. 100 μL aliquots were removed for Trypan blue exclusion trial. 200 μL aliquots were removed for cytospin preparations. The remaining 700 μL samples were then centrifuged for 5 minutes at 510×g at 4° C. Supernatant was removed and cells were resuspended in medium in 1 ml of insect cell lysis buffer (Pharmingen # 21425A) and incubated for 30 minutes on ice. The cell lysates were then stored at −70° C. until analysis.
(§2) Aliquots of a 100 μL of cell lysate were removed for the caspase assay. Each portion was mixed with 1 ml protease assay buffer and Ac-DEVD-AMC substrate (Pharmingen # 66081U) with a final concentration of 20 μM. Solutions were incubated for 60 minutes at 37° C.
(§3) To determine background fluorescence a control was prepared, containing no cell lysate but the same amounts of protease assay buffer, lysis buffer and Ac-DEVD-AMC substrate.
(§4) Fluorescence was measured using a spectrofluorometer (RF 540, Shimadzu Data Recorder DR3, Instrument AB, Lambda) at 415-450 nm with an excitation wavelength of 380 nm.

COX-2 = settings: Animals I; controls set to 100; mean (range); α-AED 10 mg 96 hours, β-AED 80 mg 456 hours, α+β sequential
Description: (§5) The animal experiment described above was repeated.
(§6) Thawed rat tumours from both experiments above were homogenized in ice cold lysis-buffer. (160 mM NaCl, 10 mM HEPES, 2 mM CaCl2, 5% SDS, 0.5% Triton X-100, 100 μg/ml phenyl-metylsulfonyl fluoride, 1 μg/ml leupeptin and 2 μg/ml aprotinin), placed on ice for 15 minutes and following clarification centrifuged for 10 minutes at 13,000 g. Protein content of homogenates were determined by Lowry assay.
(§7) Protein in lysates (90 μg) were separated by electrophoresis using 8% SDS-PAGE and separated proteins were transferred onto a nitrocellulose membrane (Amersham) in trans-blot electrophoretic transfer cell (Bio-Rad Laboratories).
(§8) After washing in TTBS the blots were reincubated with horseradish peroxidase conjugated secondary antibody (anti-goat antibodies 2020, Santa Cruz) diluted 1:4000 in TTBS containing 3% (w/v) non-fat, dried milk for one hour. Blots were developed using an enhanced chemiluminescence system (ECL, Amersham) and exposed to Hyperfilm ECL (Amersham). Optical density was measured densitometrically.
(§9) The blots were striped and rehybridized with antibodies against β-catenin (C-18, sc. 1496) and COX-2 (C-20, sc 1745) antibodies.
(§10) In the second animal experiment tumours were investigated for expression of β-catenin, COX-2 and cyclin D1 (A-12, sc. 8396).

DU-145 = experiment: Caspase apoptosis assay (Ac-DEVD-AMC fluorescence); format: cell-based, human; settings: 96 hours; for Mean fluorescence DU-145 samples/100 cells n = 3 / Mean fluorescence DU-145 samples n = 3: 100 nM, mean (range); for Mean fluorescence DU-145 samples/100 cells n = 3: corrected for cell number
Description: as §1, §2, §3, §4

β-catenin = experiment: Western blotting of Dunning AT-1 rat prostate tumours; format: in vivo; settings: for β-catenin expression, optical density: Animals I, controls set to 100, mean (range), α-AED 10 mg 96 hours, β-AED 80 mg 456 hours, α+β sequential; for expression of β-catenin: Animals II, exposure 80 hours in all arms
Description: as §5, §6, §7, §8, §9, §10

PPARγ = target: T1, PPARγ (Mus musculus, UniProt P37238); experiment: Ligand-induced coactivator interaction assay (GST-PPARγ / SRC-1); format: biochemical; settings: for PPARγ-ligand activity of the steroid per se: 10 and 100 μM solutions, no liver cytosol; for band in coactivator assay, steroid incubated with liver cytosol: liver cytosol alone gives weak bands, no PAPS
T1 construct: made in house; host or cells: E. coli strain Y 1090 (GST-PPARγ); TNT Coupled Reticulocyte Lysate System, Promega (SRC-1)
Description: ApcDNA3-SRC-1 construct was used as template to prepare (^35S-methionine)-SRC-1 by in vitro transcription and translation using the TNT® Coupled Reticulocyte Lysate System (Promega).
Ligand-induced interactions between GST-PPARγ and SRC-1: To generate GST-PPARγ fusion protein, mouse PPARγcDNA was inserted into the NcoI-HindIII sites of pGEX-KG, and protein was then expressed in E. coli, strain Y 1090. The bacteria were lysed by sonication in TEDG buffer (50 mM Tris (pH 7.4), 1.5 mM EDTA, 10% glycerol, 0.4 M NaCl, 0.1 mM DTT) containing the following protease inhibitors: 0.5 mM PMSF, 1 mM benzamidine, 10 μg/ml leupeptin, 10 μg/ml antipain and […] aprotinin. The lysates were centrifuged at 100,000×g for 60 min in a SW 41 rotor using a Beckman L8-70 M ultracentrifuge. The fusion protein was immobilized on GSH Sepharose beads (Pharmacia) and then incubated with potential ligands in (FIG. 5) 10 mM Tris (pH7.4), 0.12 M KCl, 8% glycerol, 4 mM DTT, and 0.5% CHAPS (buffer AA) for 30 min at room temperature. Thereafter, (^35S methionine) SRC-1 (ca 0.1 μCi) was added, and the beads were incubated for another hour at 4° C. and then washed extensively with buffer A. SDS sample buffer was added to the beads, and the samples boiled prior to separation on 7.5% SDS-PAGE. Radioactivity was detected by autoradiography.
α- and β-AED were investigated in above assay for PPARγ ligand activity in 10 and 100 μM solutions in ethanol 10%, in distilled water. 10 μL aliquots of α-AED-solution or β-AED-solution were also added to a preparation of a male rat liver cytosolic preparation prepared as follows:
A homogenate of a rat liver, a known source of steroid sulphotransferase activity, was prepared using a food processor. The liver homogenate was protected from serine-proteases by the addition of 2 mmol of PMSF, 1 mmol of EDTA and 10 mmol Tris-HCl buffered to a pH of 7.40. The homogenate was prepared at 4° C. and then centrifuged at 15000 g for 10 minutes, followed by centrifugation at 100000 g for an hour at 4° C. The supernatant was divided into test tubes containing one of the following steroids: 17β-AED or 17α-AED in 5 μM concentration together with 100 μL of liver cytosol. One test tube served as positive control and contained SCR-1.
In a second experiment the following steroids were tested for activity: 17α-AED, 17OH-pregnenolone and 5-androstene-3β,7β,17α-triol with and without 10 μL of […] (PAPS), Sigma Chemicals, corresponding to 0.1 mg of PAPS. One test tube served as a positive control and contained SRC-1 Instead of steroid. One test tube contained liver cytosol where the steroid sulphotransferase was inactivated by heating to 45° C. for 30 minutes. Tubes were stirred at 20° C. for 1 hour and the contents were investigated in the receptor-coactivator assay for ligand activity (FIG. 5).
17α-AED was treated in the method described by Arnostova, Libuse M.; Pouzar, Vladimir; Drasar, Pavel. Inst. Org. Chem. Biochem., Czech. Acad. Sci., Prague, Czech. Synth. Commun. (1990), 20(10), 1521-9, where acetate is used as protection group and pyridine —SO3 complex as the sulfating agent. Deprotection with an excess of 0.8M NaOH in MeOH-water provides the desired hydroxy sulfate, which is investigated, for PPARγ-activity in the ligand-activated-coactivator receptor assay described above.

T1 sequence (P37238 whole entry): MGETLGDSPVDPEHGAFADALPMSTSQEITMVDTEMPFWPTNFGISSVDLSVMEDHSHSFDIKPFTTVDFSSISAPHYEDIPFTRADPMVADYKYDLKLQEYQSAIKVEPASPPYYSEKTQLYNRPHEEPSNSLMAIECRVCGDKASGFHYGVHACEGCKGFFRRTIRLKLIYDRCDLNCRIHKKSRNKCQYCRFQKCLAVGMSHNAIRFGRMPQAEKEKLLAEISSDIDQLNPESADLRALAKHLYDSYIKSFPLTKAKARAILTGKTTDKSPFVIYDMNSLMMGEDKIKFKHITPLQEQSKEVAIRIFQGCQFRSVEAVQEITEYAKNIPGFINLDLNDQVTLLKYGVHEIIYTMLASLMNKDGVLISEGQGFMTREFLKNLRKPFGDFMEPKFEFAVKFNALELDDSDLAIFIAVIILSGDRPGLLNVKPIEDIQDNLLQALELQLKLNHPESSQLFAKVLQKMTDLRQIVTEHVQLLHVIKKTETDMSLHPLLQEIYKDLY
T1 sequence (Q15788 whole entry partner): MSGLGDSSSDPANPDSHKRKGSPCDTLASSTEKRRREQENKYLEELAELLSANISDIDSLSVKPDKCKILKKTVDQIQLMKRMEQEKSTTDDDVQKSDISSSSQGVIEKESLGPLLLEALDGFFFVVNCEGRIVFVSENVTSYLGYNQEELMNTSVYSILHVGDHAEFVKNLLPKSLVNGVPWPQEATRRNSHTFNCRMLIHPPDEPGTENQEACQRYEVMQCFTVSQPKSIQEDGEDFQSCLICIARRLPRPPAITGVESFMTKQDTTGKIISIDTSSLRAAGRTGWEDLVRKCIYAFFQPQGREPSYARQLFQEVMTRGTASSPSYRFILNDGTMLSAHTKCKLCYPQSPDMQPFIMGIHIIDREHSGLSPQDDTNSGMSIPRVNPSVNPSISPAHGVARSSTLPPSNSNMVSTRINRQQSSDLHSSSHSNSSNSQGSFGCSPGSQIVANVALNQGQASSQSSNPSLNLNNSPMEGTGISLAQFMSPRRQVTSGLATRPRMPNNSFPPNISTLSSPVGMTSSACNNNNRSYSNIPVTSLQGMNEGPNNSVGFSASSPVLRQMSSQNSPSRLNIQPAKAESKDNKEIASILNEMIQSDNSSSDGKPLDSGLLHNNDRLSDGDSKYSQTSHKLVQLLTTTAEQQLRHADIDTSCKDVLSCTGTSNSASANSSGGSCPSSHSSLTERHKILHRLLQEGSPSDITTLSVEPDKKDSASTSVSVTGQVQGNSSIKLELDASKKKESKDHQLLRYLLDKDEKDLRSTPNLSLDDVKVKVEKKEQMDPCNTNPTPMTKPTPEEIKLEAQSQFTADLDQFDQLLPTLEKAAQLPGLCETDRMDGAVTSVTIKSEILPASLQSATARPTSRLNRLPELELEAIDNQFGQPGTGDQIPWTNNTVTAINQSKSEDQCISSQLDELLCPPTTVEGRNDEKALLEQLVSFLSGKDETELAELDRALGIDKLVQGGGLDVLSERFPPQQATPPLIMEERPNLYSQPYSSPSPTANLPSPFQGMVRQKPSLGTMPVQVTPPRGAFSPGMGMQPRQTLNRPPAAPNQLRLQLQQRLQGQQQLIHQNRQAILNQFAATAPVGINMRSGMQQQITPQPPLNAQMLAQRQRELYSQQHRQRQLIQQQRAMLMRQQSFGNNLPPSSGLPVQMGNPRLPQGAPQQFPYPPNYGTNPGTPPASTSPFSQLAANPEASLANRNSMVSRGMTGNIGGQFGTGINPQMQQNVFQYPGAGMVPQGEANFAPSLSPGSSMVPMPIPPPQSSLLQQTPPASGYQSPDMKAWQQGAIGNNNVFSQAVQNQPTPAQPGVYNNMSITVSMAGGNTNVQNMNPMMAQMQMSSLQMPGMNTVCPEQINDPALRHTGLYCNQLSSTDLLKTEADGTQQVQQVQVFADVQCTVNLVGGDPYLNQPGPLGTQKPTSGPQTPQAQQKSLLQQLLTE

With `C[C@]12CC[C@H]3[C@@H](CC=C4C[C@@H](O)CC[C@@]43C)[C@@H]1CC[C@H]2O` [Compound 17α-AED, androstene-3β,17α-diol] as the molecule, how does the “Mean fluorescence PC-3 samples/100 cells n = 3” value (PC-3; 100 nM, mean (range)) read?
The value was 19.5(15.7-25.9).

And the “Caspase 3-mediated fluorescence compared to untreated controls” value (PC-3)?
Its value is “essentially unaltered intensity”.

And the “COX-2 expression, optical density” value (COX-2)?
Its value is 219(192-234).

And the “Mean fluorescence DU-145 samples/100 cells n = 3” value (DU-145)?
The value was 14.2((10.9-20.3).

And the “Mean fluorescence DU-145 samples n = 3” value (DU-145)?
The value was 18.4(13.2-25.2).

And the “caspase-3 or caspase-7 fluorescence compared to 17β-AED or controls” value (DU-145; DU-145, 100 nM)?
Its value is “significant decline”.

What about the “β-catenin expression, optical density” value (β-catenin) of the same molecule?
Its value is 20(15-30).

What about the “expression of β-catenin” value (β-catenin) of the same molecule?
The value was “marked decrease”.

And the “PPARγ-ligand activity of the steroid per se” value (PPARγ)?
Its value is “No sign of transcription pointing to a ligand activity”.

What about the “band in coactivator assay, steroid incubated with liver cytosol” value (PPARγ) of the same molecule?
Its value is “band was extinguished”.

And the “PPARγ-ligand activity, steroid + liver cytosol + PAPS” value (PPARγ; second experiment, active liver cytosol, sulfate formed in situ)?
Its value is “significant difference in signal”.

What about the “PPARγ-ligand activity, native steroid + liver cytosol” value (PPARγ; second experiment, without PAPS) of the same molecule?
The value was “insignificant responses”.

What does the source list for `C[C@]12CC[C@H]3[C@@H](CC=C4C[C@@H](O)CC[C@@]43C)[C@@H]1CC[C@@H]2O` [Compound 17β-AED, reference compound]?
Mean fluorescence PC-3 samples/100 cells n = 3 (PC-3; 100 nM, mean (range)): 45.5(24.5-75.2); Mean fluorescence PC-3 samples n = 3 (PC-3; 100 nM, mean (range)): 29.6(17.4-48.1); Caspase 3-mediated fluorescence compared to untreated controls (PC-3): approximately a doubling of fluorescence; COX-2 expression, optical density (COX-2): 135(133-137); Mean fluorescence DU-145 samples/100 cells n = 3 (DU-145): 35.1(25.6-50.3); Mean fluorescence DU-145 samples n = 3 (DU-145): 42.9(32.0-58.8); β-catenin expression, optical density (β-catenin): 14(10-22); expression of β-catenin (β-catenin): did not reduce; PPARγ-ligand activity of the steroid per se (PPARγ): No sign of transcription pointing to a ligand activity; band in coactivator assay, steroid incubated with liver cytosol (PPARγ): identical result
